Measurements taken from patent publication US20250114363A1, “PHARMACEUTICAL COMPOSITION COMPRISING ALLOPURINOL, FEBUXOSTAT, OR A PHARMACEUTICALLY ACCEPTABLE SALT THEREOF FOR PREVENTING OR TREATING CARDIOVASCULAR DISEASE OF SUBJECT HAVING HIGH SERUM URIC ACID LEVEL” (Indream Healthcare Inc., priority 2022, published 2025).

Columns and labels:
Assay type in all cases: in vivo, human
[1] = system: patients with gout and a history of major cardiovascular diseases; assay: Clinical trial analysis: risk of major cardiovascular events by serum uric acid concentration (<6 vs >=6) per patient group; conditions: for increase in risk of occurrence of major cardiovascular events (hazard ratio): serum uric acid maintained at or above 6 vs below 6
Method: (§1) A multicenter, randomized, double-blind non-inferiority trial was performed. The details of the clinical trial design have been published previously. An independent data and safety monitoring committee with access to unblinded data monitored the clinical trial. The statistical analysis for the data and the safety monitoring committee was performed by an independent statistical group (WebbWrites).
(§2) The patients were regarded as having a history of major cardiovascular diseases, if they had myocardial infarction, hospitalization for unstable angina, stroke, hospitalization for transient ischemic attack, peripheral vascular disease, or diabetes mellitus symptoms. All participants provided a prior informed consent form.
The patients were randomly assigned so that they received febuxostat or allopurinol administered once a day in a double-blind manner. The randomization was stratified according to the estimated creatinine clearance at baseline (patient group having an estimated creatinine clearance ≥60 ml per minute vs patient group having an estimated creatinine clearance ≥30 and <60 ml per minute).
The dose of allopurinol was modified according to a kidney function. The patients with the estimated creatinine clearance 60 ml or more per minute i) initially received allopurinol at a dose of 300 mg once a day, and the dose was increased in 100 mg increments monthly until the patient had the serum uric acid concentration of less than 6.0 mg per deciliter or the dosage of allopurinol was 600 mg once a day. The patient having the estimated creatinine clearance of 30 ml or more and less than 60 ml per minute initially received 200 mg of allopurinol, and then the dose was increased in 100 mg increments until the patient either had the serum uric acid concentration of less than 6.0 mg per deciliter or was receiving the allopurinol dose of 400 mg once daily.
The dose of febuxostat was not modified according to the kidney function. The patients who were randomly assigned to receive febuxostat initially received 40 mg once a daily, and continued to receive the same dosage if the serum uric acid concentration was less than 6.0 mg per deciliter after 2 weeks of the treatment. If the serum uric acid concentration was higher than 6.0 mg per deciliter at 2nd week visit, the dose of febuxostat was increased to 80 mg once daily for the remainder of the trial.

[2] = system: patients with gout and a history of major cardiovascular diseases; assay: Clinical trial: rate of gout flare; conditions: overall
Method: as §1, §2
All patients received prophylaxis for the first 6 months of the randomly assigned treatment.

[3] = system: patients with gout and a history of major cardiovascular diseases; assay: Clinical trial: proportion of patients reaching serum uric acid concentration targets; conditions: febuxostat group vs allopurinol group
Method: A multicenter, randomized, double-blind non-inferiority trial was performed. The details of the clinical trial design have been published previously. An independent data and safety monitoring committee with access to unblinded data monitored the clinical trial. The statistical analysis for the data and the safety monitoring committee was performed by an independent statistical group (WebbWrites). […] The patients were regarded as having a history of major cardiovascular diseases, if they had myocardial infarction, hospitalization for unstable angina, stroke, hospitalization for transient ischemic attack, peripheral vascular disease, or diabetes mellitus symptoms. All participants provided a prior informed consent form. The dose of allopurinol was modified according to a kidney function. […] The dose of febuxostat was not modified according to the kidney function. The patients who were randomly assigned to receive febuxostat initially received 40 mg once a daily, and continued to receive the same dosage if the serum uric acid concentration was less than 6.0 mg per deciliter after 2 weeks of the treatment. […] During the period, the administration of a double-blind and double-dummy trial medications was guided by an interactive voice-response system which was a procedure to prevent unblinding for the patients whose dose was not adjusted. After completing dose adjustment, the urate level was concealed from the investigators, and the treatment was managed throughout the trial using the interactive voice-response system. […] The patients with reduced kidney function or, the patients aged 65 years or older at randomization were visited at 9 and 15 months for monitoring the serum chemical profile. If the patient agreed to be monitored, but would not return for study visit, telephone contact was made, but such method was not preferred or recommended.

Row | Structure (SMILES) | effect on cardiovascular disease when serum uric acid concentration is maintained below 6 ([1]; allopurinol: aged 65 years or older or BMI 30 kg/m^2 or less) | increase in risk of occurrence of major cardiovascular events (hazard ratio) ([1]; patient group aged 65 years or older) | increase in risk of occurrence of major cardiovascular events (hazard ratio) ([1]; patient group with BMI of 30 kg/m^2 or less) | rate of gout flare [2] [per patient-year] | effect on cardiovascular disease when serum uric acid concentration is maintained below 6 ([1]; febuxostat: aged 65 or older, glucose 126 mg/dl or more, LDL-cholesterol 100 mg/dl or less, DBP 80 or lower, or stroke or peripheral vascular disease history) | proportion of patients with maintenance of serum uric acid concentration at less than 6.0 mg per deciliter ([3]; after 2nd week, at most times, difference not large) | proportion of patients with serum uric acid concentration of less than 6.0 mg per deciliter ([3]; at the 2nd week) | proportion of patients with serum uric acid concentration of less than 5.0 mg per deciliter ([3]; entire trial)
1 | O=c1ncnc2[nH][nH]cc1-2 [allopurinol] | effectively prevented or treated | about 1.68 times | about 1.78 times | 0.63 | – | – | – | –
2 | Cc1nc(-c2ccc(OCC(C)C)c(C#N)c2)sc1C(=O)O [febuxostat] | – | – | – | 0.68 | prevented or treated | higher proportion | higher | larger proportion
